# From patent US20060069132A1, “Azolecarboxamide herbicides” (priority 2004, published 2006)
# Experiments:
# Assay in all cases: Test E pre-/postemergence herbicide test
# goosegrass = assay type: in vivo, Eleusine indica
# In short: (§1)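 Seeds were planted and treated preemergence with test chemicals in a non-phytotoxic solvent mixture containing surfactant; plants at 2 to 18 cm (1- to 4-leaf stage) received postemergence applications of the same formulation. After 12 to 14 days in a greenhouse, injury was visually rated against untreated controls on a 0 to 100 scale.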
# itchgrass = assay type: in vivo, Rottboellia cochinchinensis
# In short: as §1
# johnsongrass = assay type: in vivo, Sorghum halepense
# In short: as §1
# common groundsel = assay type: in vivo, Senecio vulgaris
# In short: as §1
# common ragweed = assay type: in vivo, Ambrosia elatior
# In short: as §1
# common purslane = assay type: in vivo, Portulaca oleracea; details: Preemergence
# In short: as §1
# dallisgrass = assay type: in vivo, Paspalum dilatatum
# In short: as §1
# broadleaf signalgrass = assay type: in vivo, Brachiaria platyphylla
# In short: as §1
# quackgrass = assay type: in vivo, Elytrigia repens
# In short: as §1
# tropical spiderwort = assay type: in vivo, Commelina benghalensis
# In short: as §1
# green foxtail = assay type: in vivo, Setaria viridis
# In short: as §1
# guineagrass = assay type: in vivo, Panicum maximum
# In short: as §1
# annual bluegrass = assay type: in vivo, Poa annua
# In short: as §1
# common mallow = assay type: in vivo, Malva sylvestris
# In short: as §1
# purple nutsedge = assay type: in vivo, Cyperus rotundus
# In short: as §1
# field bindweed = assay type: in vivo, Convolvulus arvensis
# In short: as §1
# [1] = Postemergence, 500 g ai/ha, scale 0 to 100
# [2] = Postemergence, 250 g ai/ha, scale 0 to 100
# [3] = Preemergence, 62 g ai/ha, scale 0 to 100
# [4] = Preemergence, 125 g ai/ha, scale 0 to 100
# [5] = Preemergence, 250 g ai/ha, scale 0 (no effect) to 100 (complete control)
# [6] = Preemergence, 500 g ai/ha, scale 0 (no effect) to 100 (complete control)
# [7] = postemergence, 125 g ai/ha, scale 0 to 100
# [8] = 250 g ai/ha, scale 0 (no effect) to 100 (complete control)
# [9] = 500 g ai/ha, scale 0 (no effect) to 100 (complete control)
smiles,measurement,setting,value
CCNC(=O)c1ccnc(NC(=O)c2cc(C(C)(C)C)nn2CC)c1 [Compound 152],"Plant response rating, Goosegrass",goosegrass; [1],75
same,"Plant response rating, Goosegrass",goosegrass; [2],60
same,"Plant response rating, Goosegrass",goosegrass; [3],30
same,"Plant response rating, Goosegrass",goosegrass; [4],70
same,"Plant response rating, Goosegrass",goosegrass; [5],80
same,"Plant response rating, Goosegrass",goosegrass; [6],90
same,"Plant response rating, Goosegrass",goosegrass; [7],50
same,"Plant response rating, Itchgrass",itchgrass; [1],75
same,"Plant response rating, Itchgrass",itchgrass; [2],75
same,"Plant response rating, Itchgrass",itchgrass; [3],20
same,"Plant response rating, Itchgrass",itchgrass; [4],60
same,"Plant response rating, Itchgrass",itchgrass; [5],75
same,"Plant response rating, Itchgrass",itchgrass; [6],80
same,"Plant response rating, Itchgrass",itchgrass; [7],60
same,"Plant response rating, Johnsongrass",johnsongrass; [1],95
same,"Plant response rating, Johnsongrass",johnsongrass; [2],80
same,"Plant response rating, Johnsongrass",johnsongrass; [3],30
same,"Plant response rating, Johnsongrass",johnsongrass; [4],50
same,"Plant response rating, Johnsongrass",johnsongrass; [5],80
same,"Plant response rating, Johnsongrass",johnsongrass; [6],85
same,"Plant response rating, Johnsongrass",johnsongrass; [7],70
same,"Plant response rating, Groundsel",common groundsel; [1],95
same,"Plant response rating, Groundsel",common groundsel; [2],95
same,"Plant response rating, Groundsel",common groundsel; [3],95
same,"Plant response rating, Groundsel",common groundsel; [4],100
same,"Plant response rating, Groundsel",common groundsel; [5],100
same,"Plant response rating, Groundsel",common groundsel; [6],100
same,"Plant response rating, Groundsel",common groundsel; [7],90
same,"Plant response rating, Ragweed",common ragweed; [1],75
same,"Plant response rating, Ragweed",common ragweed; [2],60
same,"Plant response rating, Ragweed",common ragweed; [3],20
same,"Plant response rating, Ragweed",common ragweed; [4],60
same,"Plant response rating, Ragweed",common ragweed; [5],80
same,"Plant response rating, Ragweed",common ragweed; [6],80
same,"Plant response rating, Ragweed",common ragweed; [7],50
same,"Plant response rating, Purslane","common purslane; 62 g ai/ha, scale 0 to 100",0
same,"Plant response rating, Purslane","common purslane; 125 g ai/ha, scale 0 to 100",0
same,"Plant response rating, Purslane",common purslane; [8],50
same,"Plant response rating, Purslane",common purslane; [9],100
same,"Plant response rating, Dallisgrass",dallisgrass; [1],75
same,"Plant response rating, Dallisgrass",dallisgrass; [2],75
same,"Plant response rating, Dallisgrass",dallisgrass; [3],50
same,"Plant response rating, Dallisgrass",dallisgrass; [4],80
same,"Plant response rating, Dallisgrass",dallisgrass; [5],85
same,"Plant response rating, Dallisgrass",dallisgrass; [6],95
same,"Plant response rating, Dallisgrass",dallisgrass; [7],30
same,"Plant response rating, Signalgrass",broadleaf signalgrass; [1],70
same,"Plant response rating, Signalgrass",broadleaf signalgrass; [2],60
same,"Plant response rating, Signalgrass",broadleaf signalgrass; [3],10
same,"Plant response rating, Signalgrass",broadleaf signalgrass; [4],40
same,"Plant response rating, Signalgrass",broadleaf signalgrass; [5],70
same,"Plant response rating, Signalgrass",broadleaf signalgrass; [6],80
same,"Plant response rating, Signalgrass",broadleaf signalgrass; [7],20
same,"Plant response rating, Quackgrass",quackgrass; [1],80
same,"Plant response rating, Quackgrass",quackgrass; [2],80
same,"Plant response rating, Quackgrass",quackgrass; [3],10
same,"Plant response rating, Quackgrass",quackgrass; [4],20
same,"Plant response rating, Quackgrass",quackgrass; [5],50
same,"Plant response rating, Quackgrass",quackgrass; [6],60
same,"Plant response rating, Quackgrass",quackgrass; [7],70
same,"Plant response rating, Spiderwort",tropical spiderwort; [1],80
same,"Plant response rating, Spiderwort",tropical spiderwort; [2],10
same,"Plant response rating, Spiderwort",tropical spiderwort; [3],10
same,"Plant response rating, Spiderwort",tropical spiderwort; [4],20
same,"Plant response rating, Spiderwort",tropical spiderwort; [5],75
same,"Plant response rating, Spiderwort",tropical spiderwort; [6],80
same,"Plant response rating, Foxtail, Green",green foxtail; [1],85
same,"Plant response rating, Foxtail, Green",green foxtail; [2],85
same,"Plant response rating, Foxtail, Green",green foxtail; [3],20
same,"Plant response rating, Foxtail, Green",green foxtail; [4],70
same,"Plant response rating, Foxtail, Green",green foxtail; [5],85
same,"Plant response rating, Foxtail, Green",green foxtail; [6],100
same,"Plant response rating, Foxtail, Green",green foxtail; [7],40
same,"Plant response rating, Guineagrass",guineagrass; [1],80
same,"Plant response rating, Guineagrass",guineagrass; [2],70
same,"Plant response rating, Guineagrass",guineagrass; [3],20
same,"Plant response rating, Guineagrass",guineagrass; [4],50
same,"Plant response rating, Guineagrass",guineagrass; [5],80
same,"Plant response rating, Guineagrass",guineagrass; [6],100
same,"Plant response rating, Bluegrass",annual bluegrass; [1],85
same,"Plant response rating, Bluegrass",annual bluegrass; [2],85
same,"Plant response rating, Bluegrass",annual bluegrass; [3],60
same,"Plant response rating, Bluegrass",annual bluegrass; [4],80
same,"Plant response rating, Bluegrass",annual bluegrass; [5],95
same,"Plant response rating, Bluegrass",annual bluegrass; [6],95
same,"Plant response rating, Bluegrass",annual bluegrass; [7],60
same,"Plant response rating, Mallow",common mallow; [1],50
same,"Plant response rating, Mallow",common mallow; [2],50
same,"Plant response rating, Mallow",common mallow; [3],40
same,"Plant response rating, Mallow",common mallow; [4],80
same,"Plant response rating, Mallow",common mallow; [5],90
same,"Plant response rating, Mallow",common mallow; [6],90
same,"Plant response rating, Nutsedge, Purple",purple nutsedge; [1],75
same,"Plant response rating, Nutsedge, Purple",purple nutsedge; [2],60
same,"Plant response rating, Nutsedge, Purple",purple nutsedge; [3],0
same,"Plant response rating, Nutsedge, Purple",purple nutsedge; [4],20
same,"Plant response rating, Nutsedge, Purple",purple nutsedge; [5],50
same,"Plant response rating, Nutsedge, Purple",purple nutsedge; [6],60
same,"Plant response rating, Nutsedge, Purple",purple nutsedge; [7],30
same,"Plant response rating, Bindweed, Field",field bindweed; [1],50
same,"Plant response rating, Bindweed, Field",field bindweed; [2],30
same,"Plant response rating, Bindweed, Field",field bindweed; [3],10
same,"Plant response rating, Bindweed, Field",field bindweed; [4],20
same,"Plant response rating, Bindweed, Field",field bindweed; [5],60
same,"Plant response rating, Bindweed, Field",field bindweed; [6],90
same,"Plant response rating, Bindweed, Field",field bindweed; [7],30
CCc1nn(C(C)(C)CC)nc1C(=O)Nc1cccc(C(=O)N(C)C)c1 [Compound 372],"Plant response rating, Goosegrass",goosegrass; [3],40
same,"Plant response rating, Goosegrass",goosegrass; [4],40
same,"Plant response rating, Goosegrass",goosegrass; [5],50
same,"Plant response rating, Goosegrass",goosegrass; [6],75
same,"Plant response rating, Itchgrass",itchgrass; [3],30
same,"Plant response rating, Itchgrass",itchgrass; [4],60
same,"Plant response rating, Itchgrass",itchgrass; [5],60
same,"Plant response rating, Itchgrass",itchgrass; [6],80
same,"Plant response rating, Johnsongrass",johnsongrass; [3],30
same,"Plant response rating, Johnsongrass",johnsongrass; [4],50
same,"Plant response rating, Johnsongrass",johnsongrass; [5],70
same,"Plant response rating, Johnsongrass",johnsongrass; [6],80
same,"Plant response rating, Groundsel",common groundsel; [3],20
same,"Plant response rating, Groundsel",common groundsel; [4],70
same,"Plant response rating, Groundsel",common groundsel; [5],70
same,"Plant response rating, Groundsel",common groundsel; [6],95
same,"Plant response rating, Ragweed",common ragweed; [3],10
same,"Plant response rating, Ragweed",common ragweed; [4],20
same,"Plant response rating, Ragweed",common ragweed; [5],40
same,"Plant response rating, Ragweed",common ragweed; [6],70
same,"Plant response rating, Purslane","common purslane; 62 g ai/ha, scale 0 to 100",10
same,"Plant response rating, Purslane","common purslane; 125 g ai/ha, scale 0 to 100",40
same,"Plant response rating, Purslane",common purslane; [8],50
same,"Plant response rating, Purslane",common purslane; [9],100
same,"Plant response rating, Dallisgrass",dallisgrass; [3],10
same,"Plant response rating, Dallisgrass",dallisgrass; [4],50
same,"Plant response rating, Dallisgrass",dallisgrass; [5],80
same,"Plant response rating, Dallisgrass",dallisgrass; [6],85
same,"Plant response rating, Signalgrass",broadleaf signalgrass; [3],0
same,"Plant response rating, Signalgrass",broadleaf signalgrass; [4],10
same,"Plant response rating, Signalgrass",broadleaf signalgrass; [5],40
same,"Plant response rating, Signalgrass",broadleaf signalgrass; [6],60
same,"Plant response rating, Quackgrass",quackgrass; [3],30
same,"Plant response rating, Quackgrass",quackgrass; [4],60
same,"Plant response rating, Quackgrass",quackgrass; [5],95
same,"Plant response rating, Quackgrass",quackgrass; [6],95
same,"Plant response rating, Spiderwort",tropical spiderwort; [4],70
same,"Plant response rating, Spiderwort",tropical spiderwort; [5],70
same,"Plant response rating, Spiderwort",tropical spiderwort; [6],80
same,"Plant response rating, Foxtail, Green",green foxtail; [3],10
same,"Plant response rating, Foxtail, Green",green foxtail; [4],50
same,"Plant response rating, Foxtail, Green",green foxtail; [5],60
same,"Plant response rating, Foxtail, Green",green foxtail; [6],70
same,"Plant response rating, Guineagrass",guineagrass; [3],40
same,"Plant response rating, Guineagrass",guineagrass; [4],80
same,"Plant response rating, Guineagrass",guineagrass; [5],80
same,"Plant response rating, Guineagrass",guineagrass; [6],95
same,"Plant response rating, Bluegrass",annual bluegrass; [3],30
same,"Plant response rating, Bluegrass",annual bluegrass; [4],80
same,"Plant response rating, Bluegrass",annual bluegrass; [5],95
same,"Plant response rating, Bluegrass",annual bluegrass; [6],95
same,"Plant response rating, Mallow",common mallow; [3],50
same,"Plant response rating, Mallow",common mallow; [4],50
same,"Plant response rating, Mallow",common mallow; [5],80
same,"Plant response rating, Mallow",common mallow; [6],90
same,"Plant response rating, Nutsedge, Purple",purple nutsedge; [3],30
same,"Plant response rating, Nutsedge, Purple",purple nutsedge; [5],50
same,"Plant response rating, Nutsedge, Purple",purple nutsedge; [6],100
same,"Plant response rating, Bindweed, Field",field bindweed; [3],10
same,"Plant response rating, Bindweed, Field",field bindweed; [4],10
same,"Plant response rating, Bindweed, Field",field bindweed; [5],50
same,"Plant response rating, Bindweed, Field",field bindweed; [6],60
